{"source": "patent US8394968B2", "about": "“Hepatitis C virus inhibitors” (Bristol-Myers Squibb Company, priority 2009, dated 2013)", "system": "HCV 1b genotype", "experiment": "HCV Replicon assay (HCV-neo replicon cells, wild-type; luciferase reporter variants also used)", "format": "cell-based", "details": "Hepatitis C virus, HCV 1b genotype replicon", "procedure": "An HCV Replicon assay was utilized in the present disclosure, and was prepared, conducted and validated as described in commonly owned PCT/US2006/022197 and in O'Boyle et. al. Antimicrob Agents Chemother. 2005 April; 49(4):1346-53. Assay methods incorporating luciferase reporters have also been used as described (Apath.com).\nHCV-neo replicon cells and replicon cells containing mutations in the NS5A region were used to test the currently described family of compounds. The compounds were determined to have more than 10-fold less inhibitory activity on cells containing mutations than wild-type cells. Thus, the compounds of the present disclosure can be effective in inhibiting the function of the HCV NS5A protein and are understood to be as effective in combinations as previously described in application PCT/US2006/022197 and commonly owned WO/04014852. Further, the compounds of the present disclosure can be effective against the HCV 1b genotype. It should also be understood that the compounds of the present disclosure can inhibit multiple genotypes of HCV. […] In one embodiment, compounds of the present disclosure are inhibitory versus 1a, 1b, 2a, 2b, 3a, 4a, and 5a genotypes.", "note": "Read-outs that look alike come from different tables or passages of the source."}
{"smiles": "COC(=O)NC(C(=O)N1CCC[C@H]1c1nc2ccc(-c3ccc(-c4ccc5c(ccc6[nH]c([C@@H]7CCCN7C(=O)C(NC(=O)OC)c7ccccc7)nc65)c4)cc3)cc2[nH]1)c1ccccc1", "note": "(stereo in doubt) [J.27c, methyl ((1R)-2-((2S)-2-(7-(4-(2-((2S)-1-((2R)-2-((methoxycarbonyl)amino)-2-phenylacetyl)-2-pyrrolidinyl)-1H-benzimidazol-5-yl)phenyl)-1H-naphtho[1,2-d]imidazol-2-yl)-1-pyrrolidinyl)-2-oxo-1-phenylethyl)carbamate]", "values": [{"measurement": "EC50", "setting": "read-out: EC50", "value": 0.003, "unit": "nM"}]}
{"smiles": "COC(=O)NC(C(=O)N1CCC[C@H]1c1nc2ccc(C#Cc3cccc(-c4[nH]cnc4[C@@H]4CCCN4C(=O)[C@@H](NC(=O)OC)C(C)C)c3)cc2[nH]1)C(C)C", "note": "(stereo in doubt) [J.28l, methyl ((1S)-1-(((2S)-2-(5-(3-((2-((2S)-1-((2R)-2-((methoxycarbonyl)amino)-3-methylbutanoyl)-2-pyrrolidinyl)-1H-benzimidazol-5-yl)ethynyl)phenyl)-1H-imidazol-4-yl)-1-pyrrolidinyl)carbonyl)-2-methylpropyl)carbamate]", "values": [{"measurement": "EC50", "setting": "class symbol, read-out: EC50 Range", "value": "4.57 to 99", "unit": "nM"}, {"measurement": "EC50", "setting": "read-out: EC50", "value": 7, "unit": "nM"}]}
